Measured values taken from publication PMC10447463, “Data-mining unveils structure–property–activity correlation of viral infectivity enhancing self-assembling peptides” (Nature Communications, 2023).
Like-named read-outs stand apart in the source and are kept apart here.

Experiments:
[1] = format: physicochemical; conditions: for Tht category (> 2 to blank = +): Fig S10 panel D; for ThT Cat. / ThT-Fluorescence (categorical): ThT-active if fluorescence at least twice the control
How it was run: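 Fibrils (1 mg/mL solution) were mixed with 50 µM ThT in PBS for 15 min at RT, and fluorescence was read at λex 440/λem 488 nm against a PBS blank, as a triplicate mean ± SD. Zeta potential came from electrophoretic mobility (Smoluchowski) after 1 d aggregation at 1 mg/mL in PBS pH 7.4, diluted into 1 mM KCl.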

[2] = tested on: HIV-1 infection of TZM-bl cells; experiment: HIV-1 infectivity enhancement assay, β-galactosidase luminescence; format: cell-based; conditions: for Rel-EFC / Log10 Infection Rel EFC: 1.3 µM peptide; for Rel-EFC: infection relative to EF-C (QCKIKQIINMWQ = 1); for Log10 Infection Rel EFC: log10 of infection relative to EF-C; for Log Infectivity: Log10 infection relative to EF-C, TZM-bl cells, asymmetric std dev errors; for Log10 Infection Rel EF-C: HIV-1 infection of TZM-bl cells; for Log10 of Rel to EFC (Feb2021): Log10 of infection relative to EF-C, all peptides of FigS16
[3] = β-sheet content by ATR-FT-IR; format: physicochemical; conditions: Fig. S7 panel A; β-sheet content by ATR-FT-IR
How it was run: (§1)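 Fluorescamine labelling (20 min RT, λex 365/λem 470 nm) of 3 kDa-MWCO filtrate and unfiltered fibril samples, redissolved in DMSO, gave conversion rate as 100 minus the percentage filtrate/original intensity, in triplicate. Secondary structure was quantified by ATR FT-IR on lyophilized 1 mg/mL fibrils, 64 scans.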

[4] = Conversion rate (CR) assay with fluorescamine; format: physicochemical; set-up: key to CR: % = 100−100×filtrate/original fluorescence intensity; conditions: conversion rate, fluorescamine assay; for CR / %: Fig. S7 panel B
How it was run: as §1

[5] = Fig. S7 panel A (plotted against β-sheet content)
[6] = Fig. S7 panel B (plotted against CR), rounded to two decimals
[7] = Log10 of infection rate relative to EF-C, Figure 3A source data
[8] = infection rate relative to EF-C, log10, data of Figure 2D
[9] = infection rate relative to EF-C, log10, source data of Figure 2C
[10] = ThT fluorescence category, 1 if Rel. ThT >2

## QCKIKIQINM
[1]
  Tht category (> 2 to blank = +): 1 (ThT. Cat is 1, if Rel. ThT >2)
  ThT Cat. / ThT-Fluorescence (categorical): 1 (ThT. Cat is 1, if Rel. ThT >2)
[1]; Fig S10 panel E
  ThT Cat.: 1 (ThT. Cat is 1, if Rel. ThT >2)
[1]; ThT category, 1 if Rel. ThT >2
  ThT Cat,: 1 (ThT. Cat is 1, if Rel. ThT >2)
  ThT Cat.: 1 (ThT. Cat is 1, if Rel. ThT >2)
[2]
  Rel-EFC: 0,4
  Log10 Infection Rel EFC: -0,4
  Log10 of Rel to EFC (Feb2021): -0.4
[2]; [5]
  Log Infectivity: -0.4024
[2]; [6]
  Log Infectivity: -0.4
[2]; [7]
  Log10 Infection Rel EF-C: -0.4
[2]; [8]
  Log10 Infection Rel EF-C: -0.4024
[2]; [9]
  Log10 Infection Rel EF-C: -0.4024
[2]; absolute infection signal, HIV-1 on TZM-bl cells, β-galactosidase luminescence
  Abs. Inf.: 15250
[2]; log10 of HIV-1 infection of TZM-bl cells relative to EF-C (EF-C = 0)
  Log10 Inf. rel. to EF-C: -0.4024
[3]
  b -sheet / %: 37.11%
[4]
  CR / %: 89.7%
  CR: 89.7

## RGDCKFKFQF
[1]
  Tht category (> 2 to blank = +): 1 (ThT. Cat is 1, if Rel. ThT >2)
  ThT Cat. / ThT-Fluorescence (categorical): 1 (ThT. Cat is 1, if Rel. ThT >2)
[1]; Fig S10 panel E
  ThT Cat.: 1 (ThT. Cat is 1, if Rel. ThT >2)
[1]; ThT category, 1 if Rel. ThT >2
  ThT Cat,: 1 (ThT. Cat is 1, if Rel. ThT >2)
[1]; [10]
  ThT Cat.: 1 (ThT. Cat is 1, if Rel. ThT >2)
[2]
  Rel-EFC: 0,15
  Log10 Infection Rel EFC: -0,82
  Log10 of Rel to EFC (Feb2021): -0.82
[2]; [5]
  Log Infectivity: -0.8186
[2]; [6]
  Log Infectivity: -0.82
[2]; [7]
  Log10 Infection Rel EF-C: -0.82
[2]; [8]
  Log10 Infection Rel EF-C: -0.8186
[2]; [9]
  Log10 Infection Rel EF-C: -0.8186
[3]
  b -sheet / %: 46.68%
[4]
  CR / %: 85.5%
  CR: 85.47

## RGDKIKIQIC
[1]
  Tht category (> 2 to blank = +): 1 (ThT. Cat is 1, if Rel. ThT >2)
  ThT Cat. / ThT-Fluorescence (categorical): 1 (ThT. Cat is 1, if Rel. ThT >2)
[1]; Fig S10 panel E
  ThT Cat.: 1 (ThT. Cat is 1, if Rel. ThT >2)
[1]; ThT category, 1 if Rel. ThT >2
  ThT Cat,: 1 (ThT. Cat is 1, if Rel. ThT >2)
[1]; [10]
  ThT Cat.: 1 (ThT. Cat is 1, if Rel. ThT >2)
[2]
  Rel-EFC: 0,83
  Log10 Infection Rel EFC: -0,08
  Log10 of Rel to EFC (Feb2021): -0.08
[2]; [5]
  Log Infectivity: -0.07993
[2]; [6]
  Log Infectivity: -0.08
[2]; [7]
  Log10 Infection Rel EF-C: -0.08
[2]; [8]
  Log10 Infection Rel EF-C: -0.07993
[2]; [9]
  Log10 Infection Rel EF-C: -0.07993
[3]
  b -sheet / %: 40.73%
[4]
  CR / %: 80%
  CR: 80

## RGDKIKIQINM
[1]
  Tht category (> 2 to blank = +): 1 (ThT. Cat is 1, if Rel. ThT >2)
  ThT Cat. / ThT-Fluorescence (categorical): 1 (ThT. Cat is 1, if Rel. ThT >2)
[1]; Fig S10 panel E
  ThT Cat.: 1 (ThT. Cat is 1, if Rel. ThT >2)
[1]; ThT category, 1 if Rel. ThT >2
  ThT Cat,: 1 (ThT. Cat is 1, if Rel. ThT >2)
[1]; [10]
  ThT Cat.: 1 (ThT. Cat is 1, if Rel. ThT >2)
[2]
  Rel-EFC: 0,41
  Log10 Infection Rel EFC: -0,38
  Log10 of Rel to EFC (Feb2021): -0.38
[2]; [5]
  Log Infectivity: -0.3838
[2]; [6]
  Log Infectivity: -0.38
[2]; [7]
  Log10 Infection Rel EF-C: -0.38
[2]; [8]
  Log10 Infection Rel EF-C: -0.3838
[2]; [9]
  Log10 Infection Rel EF-C: -0.3838
[3]
  b -sheet / %: 45.52%
[4]
  CR / %: 60.9%
  CR: 60.92

## RGDKIKIQINMWQ
[1]
  Tht category (> 2 to blank = +): 0 (ThT-inactive (N-Fold <2))
  ThT Cat. / ThT-Fluorescence (categorical): 0 (ThT-inactive (N-Fold <2))
[1]; Fig S10 panel E
  ThT Cat.: 0 (ThT-inactive (N-Fold <2))
[1]; ThT category, 1 if Rel. ThT >2
  ThT Cat,: 0 (ThT-inactive (N-Fold <2))
[1]; [10]
  ThT Cat.: 0 (ThT-inactive (N-Fold <2))
[2]
  Rel-EFC: 0,76
  Log10 Infection Rel EFC: -0,12
  Log10 of Rel to EFC (Feb2021): -0.12
[2]; [5]
  Log Infectivity: -0.1175
[2]; [6]
  Log Infectivity: -0.12
[2]; [7]
  Log10 Infection Rel EF-C: -0.12
[2]; [8]
  Log10 Infection Rel EF-C: -0.1175
[2]; [9]
  Log10 Infection Rel EF-C: -0.1175
[3]
  b -sheet / %: 49.07%
[4]
  CR / %: 66%
  CR: 66
